In ChEMBL document CHEMBL3779806, “5-Carba-pterocarpens: A new scaffold with anti-HCV activity” (Eur J Med Chem, 2016):
The source made the active and inactive calls. No cut-off for these calls is given here.

Legend:
Hepatitis C virus [1] = test: Antiviral activity against HCV genotype 1b infected in Huh7/Rep-Feo1b cells assessed as inhibition of viral RNA replication at 50 uM after 48 hrs by luciferase reporter gene assay relative to control; type: functional, Hepacivirus hominis; conditions: Huh-7, 48 h
Hepatitis C virus [2] = test: Antiviral activity against HCV genotype 2a infected in Huh7.5-FGR-JC1-Rluc2A cells assessed as inhibition of viral RNA replication after 48 hrs by luciferase reporter gene assay; type: functional, organism-based, Hepacivirus hominis
Hepatitis C virus [3] = test: Antiviral activity against HCV genotype 1b infected in Huh7/Rep-Feo1b cells assessed as inhibition of viral RNA replication after 48 hrs by luciferase reporter gene assay; type: functional, organism-based, Hepacivirus hominis; conditions: Huh-7, 48 h
[4] = Selectivity index, ratio of CC50 for human Huh7.5 cells to EC50 for HCV genotype 2a infected in Huh7.5-FGR-JC1-Rluc2A cells; parameters: species or system Huh-7
Hepacivirus hominis [5] = test: Inhibition of HCV NS5B RNA dependent RNA polymerase activity infected in BHK-NS5B-FRLuc cells at 50 uM incubated for 40 hrs by dual luciferase reporter gene assay relative to control; type: cell-based
[6] = Cytotoxicity against hamster BHK cells assessed as cell viability at 50 uM after 40 hrs by luciferase reporter gene assay relative to control; type: cell-based, Mesocricetus auratus; conditions: read-out: Activity
Hepacivirus hominis [7] = test: Inhibition of recombinant HCV NS5B RNA dependent RNA polymerase activity assessed as reduction in [alpha-32P]UTP incorporation using poly(rA)-U12 as template/primer at 50 uM incubated for 1 hr by liquid scintillation counting method relative to control
[8] = Selectivity index, ratio of CC50 for human Huh7.5 cells to EC50 for HCV genotype 1b infected in Huh7/Rep-Feo1b cells; parameters: species or system Huh-7
[9] = Cytotoxicity against human Huh7.5 cells assessed as reduction in cell viability after 48 hrs by MTS assay; type: cell-based, Huh-7
Hepatitis C virus [10] = test: Antiviral activity against HCV genotype 2a infected in Huh7.5-FGR-JC1-Rluc2A cells assessed as inhibition of viral RNA replication at 50 uM after 48 hrs by luciferase reporter gene assay relative to control; type: functional, Hepacivirus hominis

SMILES	EC50 (Hepatitis C virus [2]) [µM]	EC50 (Hepatitis C virus [3]) [µM]	inhibition (Hepacivirus hominis [7])	inhibition at 50 µM (Hepatitis C virus [1]) [%]	Ratio CC50/EC50 [4]	inhibition (Hepacivirus hominis [5])	viability at 40 h, 50 µM [6] [%]	Ratio CC50/EC50 [8]	CC50 at 48 h [9] [µM]	inhibition at 50 µM (Hepatitis C virus [10]) [%]
Oc1ccc2c(c1)-c1oc3ccccc3c1CC2	2.3	27.9	38.5%	95.1	42.1	39.4%	≥ 80	3.5	96.8	98.4
Oc1ccc2c3c(oc2c1)-c1ccccc1CC3	5.7	13.9	inactive	90.1	15.8	inactive	≥ 80	7.2	99.9	97.2
c1ccc2c(c1)CCc1c-2oc2ccccc12	15.3	40.7	inactive	50.7	>13	inactive	≥ 80	>4.9	> 200	86.5
Oc1ccc2c3c(oc2c1)-c1cc(O)c(O)cc1CC3	6.1	5.5	inactive	98.6	18.8	inactive	≥ 80	20.9	115	96.9
Oc1ccc2c3c(oc2c1)-c1cccc(O)c1CC3	2.4	5.9	38%	96.7	24.7	33.3%	≥ 80	10.1	59.5	99.7

Continued, in another order:

EC50 (Hepatitis C virus [2]) [µM]	EC50 (Hepatitis C virus [3]) [µM]	inhibition (Hepacivirus hominis [7])	SMILES	inhibition at 50 µM (Hepatitis C virus [1]) [%]	Ratio CC50/EC50 [4]	inhibition (Hepacivirus hominis [5])	viability at 40 h, 50 µM [6] [%]	Ratio CC50/EC50 [8]	CC50 at 48 h [9] [µM]	inhibition at 50 µM (Hepatitis C virus [10]) [%]
1.5	19.9	36.2%	COc1ccc2c(c1)CCc1c-2oc2cc(O)ccc12	97.9	70.6	37%	≥ 80	5.3	106	99.8
1.9	12.3	inactive	Oc1ccc2c(c1)CCc1c-2oc2cc(O)ccc12	98.1	44.4	inactive	≥ 80	6.8	84.5	99.6
6		33.1%	Oc1ccc2c(c1)-c1oc3cc(O)ccc3c1CC2	49.3	26.1	36.1%	≥ 80		157	97.8
